Series [1] deals with Adrenergic, Beta 2 (hr) (Homo sapiens, UniProt P07550). Put plainly: Receptor binding assay: Adrenergic Beta 2. The following applies: Test Compound @ 10 1 M.
For series [2], the target named is Adenosine A2A (hr) (Homo sapiens, UniProt P29274). Put plainly: Receptor binding assay: Adenosine A2A. To be noted: Test Compound @ 10 1 M.
For series [3], the system named is rat tail flick assay. Put plainly: Rat tail flick assay (acute pain). The class given is in vivo. The following applies: up to 30 mg/kg po. On the technique in general: In hot-plate and tail-flick tests a longer latency is read as antinociception.
Series [4] concerns Glutamate, NMDA Glycine. Description: Receptor binding assay: Glutamate NMDA Glycine. To be noted: Test Compound @ 10 1 M.
Series [5] deals with Adrenergic, Alpha 1B. Description: Receptor binding assay: Adrenergic Alpha 1B. The following applies: Test Compound @ 10 1 M.
Series [6] deals with Dopamine, D4.4 (hr) (Homo sapiens, UniProt P21917). Description: Receptor binding assay: Dopamine D4.4. To be noted: Test Compound @ 10 1 M.
Dopamine, D4.4 (hr), sequence (P21917 whole entry): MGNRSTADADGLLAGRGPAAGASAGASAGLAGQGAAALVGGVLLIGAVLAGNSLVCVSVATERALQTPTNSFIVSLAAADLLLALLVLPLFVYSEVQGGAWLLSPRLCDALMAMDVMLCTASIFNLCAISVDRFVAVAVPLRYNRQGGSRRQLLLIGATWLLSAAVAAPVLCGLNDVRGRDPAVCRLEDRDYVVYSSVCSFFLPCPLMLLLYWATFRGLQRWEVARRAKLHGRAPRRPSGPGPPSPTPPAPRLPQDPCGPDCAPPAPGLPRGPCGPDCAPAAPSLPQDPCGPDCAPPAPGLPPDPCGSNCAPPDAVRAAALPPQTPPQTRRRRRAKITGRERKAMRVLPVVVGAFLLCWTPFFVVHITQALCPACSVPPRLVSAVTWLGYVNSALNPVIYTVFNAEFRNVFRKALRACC
Series [7] concerns the target T1, Histamine, H1 (Bos taurus, UniProt P30546).
T1 construct: Novascreen (assay provider)
Description: Histamine H1 binding assay. The following applies: Test Compound @ 10 1 M, read-out: Receptor Binding % Inhibition.

Series [8] has as its target Adrenergic, Beta 1 (hr) (Homo sapiens, UniProt P08588). Description: Receptor binding assay: Adrenergic Beta 1. The following applies: Test Compound @ 10 1 M.
Series [9] deals with T2, Norepinephrine transporter (Homo sapiens, UniProt P23975).
T2 construct: Novascreen (contract assay)
T2 sequence (P23975 whole entry): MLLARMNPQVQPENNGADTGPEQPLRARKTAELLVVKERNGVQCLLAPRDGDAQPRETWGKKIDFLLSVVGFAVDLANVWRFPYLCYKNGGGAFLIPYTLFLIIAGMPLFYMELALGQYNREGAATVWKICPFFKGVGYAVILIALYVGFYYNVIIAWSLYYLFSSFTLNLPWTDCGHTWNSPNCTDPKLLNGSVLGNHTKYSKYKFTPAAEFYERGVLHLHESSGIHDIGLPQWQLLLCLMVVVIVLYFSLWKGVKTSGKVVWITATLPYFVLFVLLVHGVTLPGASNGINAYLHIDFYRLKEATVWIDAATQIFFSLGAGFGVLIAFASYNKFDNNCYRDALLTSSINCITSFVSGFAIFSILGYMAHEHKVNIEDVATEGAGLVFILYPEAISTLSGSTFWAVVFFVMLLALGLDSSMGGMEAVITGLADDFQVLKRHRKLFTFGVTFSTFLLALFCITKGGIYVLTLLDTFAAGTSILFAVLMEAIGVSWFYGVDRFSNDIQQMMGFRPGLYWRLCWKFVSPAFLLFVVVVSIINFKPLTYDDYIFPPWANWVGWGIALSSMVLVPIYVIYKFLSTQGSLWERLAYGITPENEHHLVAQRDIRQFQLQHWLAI
Description: Norepinephrine transporter (human recombinant) binding assay.

The nature of series [10]: In vitro metabolism in hepatic microsomes, rat. The following applies: Sprague-Dawley rats, read-out: t1/2 in hepatic microsomes. In kind it is in vitro ADME. The method, then: (§1) In vitro metabolism of 1-[2-dimethylamino-1-(4-phenol)ethyl]-cis-1,4-cyclohexandiol was conducted in the hepatic microsomes of Sprague-Dawley rats, male dogs, male monkeys and mixed male and female humans to characterize metabolic stability and identification of metabolites. 1-[2-dimethylamino-1-(4-phenol)ethyl]-cis-1,4-cyclohexandiol was stable (t1/2>60 minutes) in hepatic microsomes indicating Phase I and II metabolism was minimal in all species.

The nature of series [11]: Hygroscopicity. In kind it is physicochemical.
The subject of series [12] is Oxidase, MAO-A, Central. Put plainly: Receptor binding assay: Oxidase MAO-A central (second line). The following applies: Test Compound @ 10 1 M.
The nature of series [13]: In vitro metabolism in hepatic microsomes, human. The class given is in vitro ADME. The following applies: both sexes, mixed male and female humans, read-out: t1/2 in hepatic microsomes. As to the method: as §1
The subject of series [14] is spinal nerve ligation model of neuropathic pain, mechanical hyperalgesia. Description: Spinal nerve ligation model of neuropathic pain, mechanical hyperalgesia. In kind it is in vivo. To be noted: rat. The method, then:
(§2) 1-[2-dimethylamino-1-(4-phenol)ethyl]-cis-1,4-cyclohexandiol was dissolved in sterile saline and administered orally (p.o.) at dosages of 10 mg/kg, 30 mg/kg and 100 mg/kg. Gabapentin was purchased from Toronto Research Chemicals (Ontario, Canada) and suspended in 2% Tween 80 in 0.5% methylcellulose and administered intraperitoneally (i.p.).
For the visceral pain study male CD-1 mice (20-25 g, Charles River; Kingston/Stoneridge, NY) were housed in groups of 5/cage on bedding and for the neuropathic study male Sprague-Dawley rats (125-150 g, Harlan; Indianapolis, Ind.) were housed 3/cage on bedding. For all studies animals were maintained in climate-controlled rooms on a 12-hour light/dark cycle (lights on at 0630) with food and water available ad libitum.
Surgical procedures were performed under 4% isoflurane/O2 anesthesia, delivered via nose cone and maintained at 2.5% for the duration of the surgery. After induction of anesthesia, the incision site was shaved and prepared in a sterile manner. […]
For the neuropathic model statistical significance was determined using a repeated measure ANOVA using a customized SAS-excel application (SAS Institute, Cary, N.C.). Significant main effects were analyzed further by subsequent least significant difference analysis. […]
Assessment of mechanical hyperalgesia thresholds were measured as the hind paw withdrawal threshold to a noxious mechanical stimulus and was determined using the paw pressure technique [Randall, L. O. and Selitto, J. J., A method for measurement of analgesic activity on inflamed tissue, Arch. […] Thresholds were evaluated prior to surgery and reassessed three weeks after SNL surgery. On test day, rats were administered vehicle or test compound mechanical thresholds assessed 1, 3, 5 and 24 hr after administration (n=10/group).

The subject of series [15] is Sigma 2. Description: Receptor binding assay: Sigma 2. The following applies: Test Compound @ 10 1 M.
Series [16] has as its system mouse PPQ induced writhing model. Description: Visceral pain model: PPQ-induced constrictions (writhing). In kind it is in vivo. As to the method: as §2
For the visceral pain study male CD-1 mice (20-25 g, Charles River; Kingston/Stoneridge, NY) were housed in groups of 5/cage on bedding and for the neuropathic study male Sprague-Dawley rats (125-150 g, Harlan; Indianapolis, Ind.) were housed 3/cage on bedding. […]
The ability of 1-[2-dimethylamino-1-(4-phenol)ethyl]-cis-1,4-cyclohexandiol to attenuate acute visceral (abdominal) pain was assessed following an i.p. injection of 2 mg/kg PPQ (dissolved in 4% ethanol in distilled water, Sigma-Aldrich, St. Louis, Mo.) [Siegmund, E., et al., Proceedings of the Society for Experimental Biology and Medicine., 95 (1957) […]]. […] During testing, following PPQ administration, mice were individually placed in a Plexiglas cage and the total number of abdominal constrictions was recorded for one-minute periods, starting at 5 and 10 minutes after PPQ injection.
Statistical significance was determined using a one-way ANOVA using a customized SAS-excel application (SAS Institute, Cary, N.C.). […]
On the technique in general: An intraperitoneal irritant provokes the stretching counted in writhing tests.

In series [17] the target is Dopamine, D1 (hr) (Homo sapiens, UniProt P21728). Description: Receptor binding assay: Dopamine D1. The following applies: Test Compound @ 10 1 M.
Dopamine, D1 (hr), sequence (P21728 whole entry): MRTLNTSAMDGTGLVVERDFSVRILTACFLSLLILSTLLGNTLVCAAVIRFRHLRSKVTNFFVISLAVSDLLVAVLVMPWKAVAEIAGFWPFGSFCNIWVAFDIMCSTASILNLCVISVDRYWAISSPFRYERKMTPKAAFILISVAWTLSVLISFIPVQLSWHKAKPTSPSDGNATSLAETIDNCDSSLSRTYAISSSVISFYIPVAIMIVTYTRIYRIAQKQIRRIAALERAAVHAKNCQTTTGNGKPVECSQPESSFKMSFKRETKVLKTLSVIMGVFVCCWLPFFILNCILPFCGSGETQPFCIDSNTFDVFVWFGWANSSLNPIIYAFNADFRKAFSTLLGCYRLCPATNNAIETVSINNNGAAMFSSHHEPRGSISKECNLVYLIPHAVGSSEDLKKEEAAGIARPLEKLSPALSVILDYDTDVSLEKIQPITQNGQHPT
Series [18] deals with T3, Serotonin, 5HT1A (hr) (Homo sapiens, UniProt P08908).
T3 construct: Novascreen (contract assay)
T3 sequence (P08908 whole entry): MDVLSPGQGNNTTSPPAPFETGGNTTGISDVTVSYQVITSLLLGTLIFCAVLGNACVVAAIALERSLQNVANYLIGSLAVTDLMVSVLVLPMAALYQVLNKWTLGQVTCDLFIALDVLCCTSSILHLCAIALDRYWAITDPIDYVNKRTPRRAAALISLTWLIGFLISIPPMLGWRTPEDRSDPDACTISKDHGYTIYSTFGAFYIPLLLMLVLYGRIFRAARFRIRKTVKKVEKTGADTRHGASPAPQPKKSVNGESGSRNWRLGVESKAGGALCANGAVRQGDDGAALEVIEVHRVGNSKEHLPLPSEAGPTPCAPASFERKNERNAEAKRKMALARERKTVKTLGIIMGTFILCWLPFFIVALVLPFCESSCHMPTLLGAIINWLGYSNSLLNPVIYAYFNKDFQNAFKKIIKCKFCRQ
Description: Receptor binding assay: Serotonin 5HT1A. The following applies: Test Compound @ 10 1 M.

The target in series [19] is T4, Serotonin, 5HT3 (hr) (Homo sapiens, UniProt P46098).
T4 construct: Novascreen (contract assay)
T4 sequence (P46098 24-478): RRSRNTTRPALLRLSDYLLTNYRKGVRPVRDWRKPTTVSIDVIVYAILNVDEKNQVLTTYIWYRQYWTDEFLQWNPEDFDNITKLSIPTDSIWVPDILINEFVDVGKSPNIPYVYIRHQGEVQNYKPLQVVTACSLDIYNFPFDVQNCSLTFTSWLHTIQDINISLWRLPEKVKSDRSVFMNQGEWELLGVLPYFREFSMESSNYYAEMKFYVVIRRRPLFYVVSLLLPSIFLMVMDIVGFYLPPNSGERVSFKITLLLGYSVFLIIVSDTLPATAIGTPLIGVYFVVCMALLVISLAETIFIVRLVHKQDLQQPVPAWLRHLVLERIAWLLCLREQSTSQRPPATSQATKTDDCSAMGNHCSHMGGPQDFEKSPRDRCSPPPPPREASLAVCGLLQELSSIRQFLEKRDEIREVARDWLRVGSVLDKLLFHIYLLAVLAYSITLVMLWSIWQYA
Description: Receptor binding assay: Serotonin 5HT3. To be noted: Test Compound @ 10 1 M.

“Also recorded” adds a separate entry of the source.

Adrenergic, Beta 2 (hr), sequence (P07550 whole entry): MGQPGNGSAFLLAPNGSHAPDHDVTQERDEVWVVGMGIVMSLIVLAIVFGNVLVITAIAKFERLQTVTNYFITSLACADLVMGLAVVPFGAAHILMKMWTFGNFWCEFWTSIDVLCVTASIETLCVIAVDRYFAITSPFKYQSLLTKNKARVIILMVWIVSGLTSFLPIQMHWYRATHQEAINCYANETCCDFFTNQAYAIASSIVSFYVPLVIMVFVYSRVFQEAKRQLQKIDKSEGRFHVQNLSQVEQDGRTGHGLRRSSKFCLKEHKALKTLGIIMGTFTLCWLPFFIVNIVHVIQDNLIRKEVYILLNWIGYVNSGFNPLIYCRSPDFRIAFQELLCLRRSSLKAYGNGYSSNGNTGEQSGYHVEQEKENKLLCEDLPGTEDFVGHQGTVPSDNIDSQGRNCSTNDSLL
Adenosine A2A (hr), sequence (P29274 whole entry): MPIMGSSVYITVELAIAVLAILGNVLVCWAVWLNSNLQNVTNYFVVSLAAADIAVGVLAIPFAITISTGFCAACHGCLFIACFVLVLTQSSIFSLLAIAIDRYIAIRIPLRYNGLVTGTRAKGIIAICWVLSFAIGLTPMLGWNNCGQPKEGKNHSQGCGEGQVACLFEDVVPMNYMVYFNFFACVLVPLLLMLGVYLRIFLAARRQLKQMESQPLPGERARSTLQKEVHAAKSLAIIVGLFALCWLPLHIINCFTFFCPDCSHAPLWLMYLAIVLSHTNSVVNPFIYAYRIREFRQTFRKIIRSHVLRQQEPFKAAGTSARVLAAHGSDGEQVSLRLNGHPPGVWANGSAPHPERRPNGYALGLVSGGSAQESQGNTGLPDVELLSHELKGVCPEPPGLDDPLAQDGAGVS
Adrenergic, Beta 1 (hr), sequence (P08588 whole entry): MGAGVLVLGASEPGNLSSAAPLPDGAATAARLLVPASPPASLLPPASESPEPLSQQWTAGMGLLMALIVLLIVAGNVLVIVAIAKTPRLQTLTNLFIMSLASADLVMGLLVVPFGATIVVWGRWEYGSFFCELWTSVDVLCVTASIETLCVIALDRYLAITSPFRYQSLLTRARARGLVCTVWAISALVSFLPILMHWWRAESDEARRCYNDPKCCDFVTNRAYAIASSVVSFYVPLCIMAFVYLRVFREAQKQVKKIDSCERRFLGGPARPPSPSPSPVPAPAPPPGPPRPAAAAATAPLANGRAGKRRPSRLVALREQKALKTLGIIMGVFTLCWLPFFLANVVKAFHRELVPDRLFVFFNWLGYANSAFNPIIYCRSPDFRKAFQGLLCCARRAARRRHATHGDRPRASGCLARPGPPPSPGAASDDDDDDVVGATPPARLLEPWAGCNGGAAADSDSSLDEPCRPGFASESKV
T1 sequence (P30546 whole entry): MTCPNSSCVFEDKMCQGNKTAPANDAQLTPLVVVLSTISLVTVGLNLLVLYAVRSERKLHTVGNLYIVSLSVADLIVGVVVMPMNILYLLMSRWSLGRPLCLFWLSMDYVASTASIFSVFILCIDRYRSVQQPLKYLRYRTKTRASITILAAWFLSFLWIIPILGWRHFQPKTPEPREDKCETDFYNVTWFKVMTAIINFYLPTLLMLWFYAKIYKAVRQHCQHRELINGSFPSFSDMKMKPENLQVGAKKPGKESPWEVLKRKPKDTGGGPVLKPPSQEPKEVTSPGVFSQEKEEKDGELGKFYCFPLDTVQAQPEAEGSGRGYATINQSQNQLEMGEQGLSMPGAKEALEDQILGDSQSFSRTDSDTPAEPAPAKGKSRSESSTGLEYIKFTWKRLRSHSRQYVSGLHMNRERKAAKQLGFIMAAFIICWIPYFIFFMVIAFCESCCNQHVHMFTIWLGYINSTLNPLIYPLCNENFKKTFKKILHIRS

As a reminder, the inhibition is the drop in the measured response relative to a control, in per cent. With `CN(C)CC(c1ccc(O)cc1)C1(O)CCC(O)CC1` (stereo not drawn) [1-[2-dimethylamino-1-(4-phenol)ethyl]-cis-1,4-cyclohexandiol], the inhibition at 10 µM in series [1] is -2.46%; in [6] it was 3.39%; in series [7] it was -7.84%; in series [8] it was 7.65%; in series [9] (Norepinephrine transporter, Test Compound @ 10 1 M, read-out: Receptor Binding % Inhibition), 49.7%; in series [17] it was -5.73%. Moreover, the inhibition at 10 µM in series [18] stood at 1.8%; in series [19], 9.72%. Moreover, the “Receptor Binding % Inhibition” value in [2] was 7.68%; in [4], 2.24%; in series [5], 11.27%; in [12], 2.43%; in [15], 1.00%. In addition, the “effect on acute pain” value in series [3] is “not found to affect acute pain”. In addition, the “norepinephrine reuptake inhibition activity” value in [9] (interpretation of the binding data in words) is “acceptable”. In addition, the half-life in series [10] and in [13] was above 1 h in each case. Besides, the Hygroscopicity entry in series [11] is recorded as “Non-hygroscopic”. Further, the “Hygroscopicity, weight gain” value in [11] (at 26.30C/90% RH, weight gain is lost upon reduction in % RH) is below 2%. In addition, the “effect versus the SNL/vehicle” value in [14] (10 and 30 mg/kg) was “positive trend”. For the same compound, the “MED, reversal of mechanical hyperalgesia” value in series [14] (spinal nerve ligation, p.o.) is 10 mg/kg. The “reversal of mechanical hyperalgesia” value in series [14] (spinal nerve ligation, p.o.) is on record as “statistically significant reversal”. Moreover, the “reversal of visceral pain (reduction in writhing)” value in series [16] (100 mg/kg p.o., 60 minutes prior to PPQ, 100 mg/kg) is given as “statistically significant reversal; also recorded: significant reduction”. Moreover, the reduction in writhing result in series [16] (10 and 30 mg/kg p.o.) is given as “not statistically significant”.

The record behind these values is US20070015828A1 (Wyeth, priority 2005, published 2007).
